# Measurements: patent US9695155B2, “Herbicidal substituted pyrimidinyloxy benzene compounds” (E. I. DU PONT DE NEMOURS AND COMPANY, priority 2013, dated 2017)
# Columns and labels:
# barnyardgrass [1] = test: Test A postemergence; type: in vivo, Echinochloa crus-galli; conditions: for Barnyardgrass plant response rating: 125 g ai/ha
# Outline: (§1)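 Visual 0–100 rating (100 = complete control) taken about 10 d post-treatment relative to untreated checks. Preemergence: directed soil spray on sown loam/sand pots. Postemergence: seedlings 2–10 cm, 1–2 leaf. Non-phytotoxic solvent formulation with surfactant.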
# wheat = test: Test A postemergence; type: in vivo, Triticum aestivum
# Outline: as §1
# rice = test: Test B flooded paddy test; type: in vivo, Oryza sativa; conditions: Flood, 250 g ai/ha, 0 to 100 scale where 0 is no effect and 100 is complete control; for plant injury at 250 g/ha: Oryza sativa, read-out: Plant response rating, Rice
# Outline: (§2)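 Seedlings are raised to two leaves, flooded to a depth of 3 cm and dosed by adding the compound to the floodwater. Water level is kept constant, and plants are scored visually versus controls 13–15 days later (0 = no effect, 100 = complete control).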
# sedge, umbrella = test: Test B flooded paddy test; type: in vivo, Cyperus difformis; conditions: Flood, 250 g ai/ha, 0 to 100 scale where 0 is no effect and 100 is complete control
# Outline: as §2
# Heteranthera limosa = test: Test B flooded paddy test; type: in vivo; conditions: Flood, 250 g ai/ha, 0 to 100 scale where 0 is no effect and 100 is complete control; for pest or weed control at 250 g/ha: Heteranthera limosa, read-out: Plant response rating, Ducksalad
# Outline: as §2
# barnyardgrass [2] = test: Test B flooded paddy test; type: in vivo, Echinochloa crus-galli; conditions: Flood, 250 g ai/ha, 0 to 100 scale where 0 is no effect and 100 is complete control; for pest or weed control at 250 g/ha: Echinochloa crus-galli, read-out: Plant response rating, Barnyardgrass
# Outline: as §2
# wheat, winter = test: Test C postemergence; type: in vivo, Triticum aestivum; conditions: for plant injury at 16 g/ha / plant injury at 125 g/ha / plant injury at 62 g/ha: Triticum aestivum, post-emergence; for plant injury at 16 g/ha: read-out: Plant response rating (0 to 100), Wheat; for plant injury at 125 g/ha / plant injury at 62 g/ha: read-out: Plant response rating, Wheat
# Outline: (§3)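 Seeds are planted in blended loam soil and sand and treated preemergence, while seedlings in a peat moss/vermiculite medium receive postemergence sprays at 2 to 18 cm height. All plants stay in the greenhouse for 13 to 15 days before visual comparison with controls on a 0–100 scale.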
# corn = test: Test C postemergence; type: in vivo, Zea mays; conditions: for plant injury at 16 g/ha: read-out: Plant response rating (0 to 100), Corn
# Outline: as §3
# giant foxtail = test: Test C postemergence; type: in vivo, Setaria faberii; conditions: for pest or weed control at 16 g/ha: read-out: Plant response rating (0 to 100), Foxtail, Giant; for pest or weed control at 125 g/ha / pest or weed control at 62 g/ha: read-out: Plant response rating, Foxtail, Giant
# Outline: as §3
# morningglory = test: Test C postemergence; type: in vivo, Ipomoea coccinea; conditions: for pest or weed control at 16 g/ha / pest or weed control at 125 g/ha / pest or weed control at 62 g/ha: Ipomoea, post-emergence; for pest or weed control at 16 g/ha: read-out: Plant response rating (0 to 100), Morningglory; for pest or weed control at 125 g/ha / pest or weed control at 62 g/ha: read-out: Plant response rating, Morningglory
# Outline: as §3
# yellow nutsedge = test: Test C postemergence; type: in vivo, Cyperus esculentus; conditions: for pest or weed control at 16 g/ha / pest or weed control at 125 g/ha / pest or weed control at 62 g/ha: Cyperus, post-emergence; for pest or weed control at 16 g/ha: read-out: Plant response rating (0 to 100), Nutsedge, Yellow; for pest or weed control at 125 g/ha / pest or weed control at 62 g/ha: read-out: Plant response rating, Nutsedge, Yellow
# Outline: as §3
# ragweed = test: Test C postemergence; type: in vivo, Ambrosia elatior; conditions: for pest or weed control at 16 g/ha / pest or weed control at 125 g/ha / pest or weed control at 62 g/ha: Ambrosia artemisiifolia, post-emergence; for pest or weed control at 16 g/ha: read-out: Plant response rating (0 to 100), Ragweed; for pest or weed control at 125 g/ha / pest or weed control at 62 g/ha: read-out: Plant response rating, Ragweed
# Outline: as §3
# soybean = test: Test C postemergence; type: in vivo, Glycine max; conditions: for Soybean plant response rating (crop injury, 0-100 scale) at 16 g/ha / Soybean plant response rating (crop injury, 0-100 scale) at 125 g/ha / Soybean plant response rating (crop injury, 0-100 scale) at 62 g/ha: Glycine max, post-emergence; for Soybean plant response rating (crop injury, 0-100 scale) at 125 g/ha: read-out: Plant response rating, Soybean
# Outline: as §3
# [3] = 0 to 100 scale where 0 is no effect and 100 is complete control
# [4] = 500 g ai/ha, 0 to 100 scale where 0 is no effect and 100 is complete control
# [5] = 16 g ai/ha, postemergence, 0 is no effect, 100 is complete control
# [6] = 125 g ai/ha, postemergence, visual rating, scale 0 to 100 (0 no effect, 100 complete control)
# [7] = Postemergence, 62 g ai/ha, scale 0 to 100 (0 no effect, 100 complete control)
# [8] = Zea mays, post-emergence, 16 g ai/ha, postemergence, 0 is no effect, 100 is complete control
# [9] = Zea mays, post-emergence, 125 g ai/ha, postemergence, visual rating, scale 0 to 100 (0 no effect, 100 complete control)
# [10] = Zea mays, post-emergence, Postemergence, 62 g ai/ha, scale 0 to 100 (0 no effect, 100 complete control)
# [11] = Setaria faberi, post-emergence, 16 g ai/ha, postemergence, 0 is no effect, 100 is complete control
# [12] = Setaria faberi, post-emergence, 125 g ai/ha, postemergence, visual rating, scale 0 to 100 (0 no effect, 100 complete control)
# [13] = Setaria faberi, post-emergence, Postemergence, 62 g ai/ha, scale 0 to 100 (0 no effect, 100 complete control)
# [14] = 31 g ai/ha, 0 to 100 scale, 0 no effect, 100 complete control
# [15] = 31 g ai/ha, postemergence, visual rating, scale 0 to 100 (0 no effect, 100 complete control), 13 to 15 days
smiles,measurement,setting,value
"N#Cc1cccc(Oc2ncc(Cl)cn2)c1-n1cc(SC(F)(F)F)cn1 [Compound 134, 3-[(5-chloro-2-pyrimidinyl)oxy]-2-[4-(trifluoromethylthio)-1-pyrazolyl]benzonitrile]",Barnyardgrass plant response rating,barnyardgrass [1]; [3],80
same,"Plant response rating, Barnyardgrass",barnyardgrass [1]; [4],90
same,"Plant response rating, Wheat",wheat; [4],70
same,plant injury at 125 g/ha,"wheat; Triticum aestivum, post-emergence, 240 h, 125 g ai/ha, 0 to 100 scale where 0 is no effect and 100 is complete control, read-out: Wheat plant response rating",0%
same,plant injury at 250 g/ha,rice,0%
same,"Plant response rating, Sedge, Umbrella","sedge, umbrella",30
same,pest or weed control at 250 g/ha,Heteranthera limosa,30%
same,pest or weed control at 250 g/ha,barnyardgrass [2],0%
same,plant injury at 16 g/ha,"wheat, winter; [5]",0%
same,plant injury at 125 g/ha,"wheat, winter; [6]",25%
same,plant injury at 62 g/ha,"wheat, winter; [7]",5%
same,plant injury at 16 g/ha,corn; [8],5%
same,"Corn plant response rating (crop injury, 0 = no effect, 100 = complete kill) at 125 g/ha",corn; [9],5%
same,"Corn plant response rating (crop injury, 0 = no effect, 100 = complete kill) at 62 g/ha",corn; [10],10%
same,pest or weed control at 16 g/ha,giant foxtail; [11],5%
same,pest or weed control at 125 g/ha,giant foxtail; [12],5%
same,pest or weed control at 62 g/ha,giant foxtail; [13],5%
same,pest or weed control at 16 g/ha,morningglory; [5],70%
same,pest or weed control at 125 g/ha,morningglory; [6],95%
same,pest or weed control at 62 g/ha,morningglory; [7],85%
same,pest or weed control at 16 g/ha,yellow nutsedge; [5],0%
same,pest or weed control at 125 g/ha,yellow nutsedge; [6],10%
same,pest or weed control at 62 g/ha,yellow nutsedge; [7],10%
same,pest or weed control at 16 g/ha,ragweed; [5],10%
same,pest or weed control at 125 g/ha,ragweed; [6],55%
same,pest or weed control at 62 g/ha,ragweed; [7],55%
same,"Soybean plant response rating (crop injury, 0-100 scale) at 16 g/ha",soybean; [5],60%
same,"Soybean plant response rating (crop injury, 0-100 scale) at 125 g/ha",soybean; [6],90%
same,"Soybean plant response rating (crop injury, 0-100 scale) at 62 g/ha",soybean; [7],65%
N#Cc1cnn(-c2c(Br)cccc2Oc2ncc(Cl)cn2)c1 [Compound 140],"Plant response rating, Barnyardgrass",barnyardgrass [1]; [14],30
same,Barnyardgrass plant response rating,barnyardgrass [1]; [3],70
same,"Plant response rating, Wheat",wheat; [14],0
same,Wheat plant response rating,"wheat; 125 g ai/ha, 0 to 100 scale where 0 is no effect and 100 is complete control",0
same,"Plant response rating, Rice",rice,0
same,"Plant response rating, Sedge, Umbrella","sedge, umbrella",80
same,"Plant response rating, Ducksalad",Heteranthera limosa,80
same,"Plant response rating, Barnyardgrass",barnyardgrass [2],20
same,"Plant response rating (0 to 100), Wheat","wheat, winter; [5]",0
same,"Plant response rating, Wheat","wheat, winter; [6]",10
same,"Plant response rating, Wheat","wheat, winter; [7]",0
same,"Plant response rating (0 to 100), Corn",corn; [5],0
same,"Plant response rating, Corn",corn; [6],10
same,"Plant response rating, Corn",corn; [7],10
same,"Plant response rating (0 to 100), Foxtail, Giant",giant foxtail; [5],5
same,"Plant response rating, Foxtail, Giant",giant foxtail; [6],20
same,"Plant response rating, Foxtail, Giant",giant foxtail; [7],20
same,"Plant response rating (0 to 100), Morningglory",morningglory; [5],0
same,"Plant response rating, Morningglory",morningglory; [6],70
same,"Plant response rating, Morningglory",morningglory; [7],75
same,"Plant response rating (0 to 100), Nutsedge, Yellow",yellow nutsedge; [5],0
same,"Plant response rating, Nutsedge, Yellow",yellow nutsedge; [6],5
same,"Plant response rating, Nutsedge, Yellow",yellow nutsedge; [7],5
same,"Plant response rating (0 to 100), Ragweed",ragweed; [5],25
same,"Plant response rating, Ragweed",ragweed; [6],75
same,"Plant response rating, Ragweed",ragweed; [7],60
same,"Plant response rating (0 to 100), Soybean",soybean; [5],25
same,"Plant response rating, Soybean",soybean; [6],75
same,"Plant response rating, Soybean",soybean; [7],65
"Clc1cnc(Oc2ccccc2-n2cc(C3CC3)nn2)nc1 [Compound 160, 5-chloro-2-[2-(4-cyclopropyl-1H-1,2,3-triazol-1-yl)phenoxy]pyrimidine]",pest or weed control at 1000 g/ha,"barnyardgrass [1]; Echinochloa crus-galli, post-emergence, 240 h, 1000 g ai/ha, 0 to 100 scale, 0 no effect, 100 complete control, read-out: Plant response rating Barnyardgrass",100%
same,plant injury at 1000 g/ha,"wheat; Triticum aestivum, post-emergence, 240 h, 1000 g ai/ha, 0 to 100 scale, 0 no effect, 100 complete control, read-out: Plant response rating Wheat",100%
same,plant injury at 250 g/ha,rice,35%
same,pest or weed control at 250 g/ha,"sedge, umbrella; Cyperus difformis, read-out: Plant response rating, Sedge, Umbrella",75%
same,pest or weed control at 250 g/ha,Heteranthera limosa,80%
same,pest or weed control at 250 g/ha,barnyardgrass [2],35%
same,Wheat plant response rating,"wheat, winter; [15]",5
same,plant injury at 16 g/ha,"wheat, winter; [5]",0%
same,plant injury at 125 g/ha,"wheat, winter; [6]",5%
same,plant injury at 62 g/ha,"wheat, winter; [7]",5%
same,plant injury at 16 g/ha,corn; [8],0%
same,plant injury at 31 g/ha,"corn; Zea mays, post-emergence, 31 g ai/ha, postemergence, visual rating, scale 0 to 100 (0 no effect, 100 complete control), 13 to 15 days, read-out: Corn plant response rating",5%
same,"Corn plant response rating (crop injury, 0 = no effect, 100 = complete kill) at 125 g/ha",corn; [9],5%
same,"Corn plant response rating (crop injury, 0 = no effect, 100 = complete kill) at 62 g/ha",corn; [10],5%
same,pest or weed control at 16 g/ha,giant foxtail; [11],0%
same,pest or weed control at 31 g/ha,"giant foxtail; Setaria faberi, post-emergence, 31 g ai/ha, postemergence, visual rating, scale 0 to 100 (0 no effect, 100 complete control), 13 to 15 days, read-out: Foxtail, Giant plant response rating",5%
same,pest or weed control at 125 g/ha,giant foxtail; [12],10%
same,pest or weed control at 62 g/ha,giant foxtail; [13],5%
same,Morningglory plant response rating,morningglory; [15],75
same,pest or weed control at 16 g/ha,morningglory; [5],5%
same,pest or weed control at 125 g/ha,morningglory; [6],65%
same,pest or weed control at 62 g/ha,morningglory; [7],75%
same,"Nutsedge, Yellow plant response rating",yellow nutsedge; [15],5
same,pest or weed control at 16 g/ha,yellow nutsedge; [5],5%
same,pest or weed control at 125 g/ha,yellow nutsedge; [6],5%
same,pest or weed control at 62 g/ha,yellow nutsedge; [7],5%
same,Ragweed plant response rating,ragweed; [15],45
same,pest or weed control at 16 g/ha,ragweed; [5],10%
same,pest or weed control at 125 g/ha,ragweed; [6],70%
same,pest or weed control at 62 g/ha,ragweed; [7],60%
same,Soybean plant response rating,soybean; [15],55
same,"Soybean plant response rating (crop injury, 0-100 scale) at 16 g/ha",soybean; [5],40%
same,"Soybean plant response rating (crop injury, 0-100 scale) at 125 g/ha",soybean; [6],60%
same,"Soybean plant response rating (crop injury, 0-100 scale) at 62 g/ha",soybean; [7],60%
